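Dose response: 5 concentrations. Exposure: 48 h. Format: 96-well plates. Endpoint: linear interpolation; highest concentration if not reached. The concentration for 50% growth inhibition is given as GI50.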 Activity calls are given as the source filed them. No stated cut-off is given here; in the data, active = GI50 up to about 1.1 µM and inactive = higher.
Columns and labels:
Experiment in all cases: inhibition of tumour cell growth, NCI panel, 48 h
CCRF-CEM = system: CCRF-CEM
HL-60 = system: HL-60
NCI-H460 = system: NCI-H460
U-251 = system: U-251
NCI/ADR-RES = system: NCI/ADR-RES
MCF7 = system: MCF7
RXF 393 = system: RXF 393
M14 = system: M14
OVCAR-5 = system: OVCAR-5
HOP-92 = system: HOP-92
Hs-578T = system: Hs-578T
BT-549 = system: BT-549
SF-268 = system: SF-268
DU-145 = system: DU-145
HT-29 = system: HT-29
T47D = system: T47D
A498 = system: A498
SN12C = system: SN12C
NCI-H23 = system: NCI-H23
HCT-116 = system: HCT-116

SMILES | GI50 (CCRF-CEM) | GI50 (HL-60) | GI50 (NCI-H460) | GI50 (U-251) | GI50 (NCI/ADR-RES) | GI50 (MCF7) | GI50 (RXF 393) | GI50 (M14) | GI50 (OVCAR-5) | GI50 (HOP-92) | GI50 (Hs-578T) | GI50 (BT-549) | GI50 (SF-268) | GI50 (DU-145) | GI50 (HT-29) | GI50 (T47D) | GI50 (A498) | GI50 (SN12C) | GI50 (NCI-H23) | GI50 (HCT-116)
CC1=C(C(=O)NCCCN(CCO)CCO)CC(C(=O)NCCCN(CCO)CCO)=C(C)N1 | 19.1 µM (inactive) | > 100 µM (inactive) | > 100 µM (inactive) | > 100 µM (inactive) | > 100 µM (inactive) | > 100 µM (inactive) | 26.4 µM (inactive) | > 100 µM (inactive) | > 100 µM (inactive) | 54.6 µM (inactive) | 29.1 µM (inactive) | > 100 µM (inactive) | 34.8 µM (inactive) | > 100 µM (inactive) | > 100 µM (inactive) | 62.1 µM (inactive) | 27.4 µM (inactive) | > 100 µM (inactive) | > 100 µM (inactive) | > 100 µM (inactive)
CN1C/C(=C\c2cccs2)C2=NN(C)C(c3cccs3)C2C1 (stereo not given) | 72.8 µM (inactive) | 3.05 µM (inactive) | 86.5 µM (inactive) | 22.8 µM (inactive) | > 100 µM (inactive) | 75.5 µM (inactive) | > 100 µM (inactive) | 97.7 µM (inactive) | > 100 µM (inactive) | 20.5 µM (inactive) | > 100 µM (inactive) | > 100 µM (inactive) | > 100 µM (inactive) | > 100 µM (inactive) | 61.1 µM (inactive) | 44.4 µM (inactive) | 46.7 µM (inactive) | 95.7 µM (inactive) | > 100 µM (inactive) | 51.4 µM (inactive)
Cc1ccc(C)c(NC(=O)C(=O)C(c2cnc3ccc([N+](=O)[O-])cc3n2)[N+](=O)[O-])c1 (stereo not given) | 24.4 µM (inactive) | 14.9 µM (inactive) | 42.7 µM (inactive) | 40.8 µM (inactive) | 25.8 µM (inactive) | > 100 µM (inactive) | 50.1 µM (inactive) | 56.9 µM (inactive) | > 100 µM (inactive) | 36.2 µM (inactive) | > 100 µM (inactive) | 53.5 µM (inactive) | > 100 µM (inactive) | 77.4 µM (inactive) | 61.2 µM (inactive) | 38.5 µM (inactive) | 33.2 µM (inactive) | 59.7 µM (inactive) | > 100 µM (inactive) | 58.6 µM (inactive)
O=C(/C=N/O)c1c(-c2ccccc2)[nH]c(-c2ccccc2)c1-c1ccccc1 | 16.6 µM (inactive) | 5.98 µM (inactive) | 16.7 µM (inactive) | 14.5 µM (inactive) | 6.78 µM (inactive) | 15.6 µM (inactive) | 12.5 µM (inactive) | 31 µM (inactive) | 0.228 µM (active) | 14 µM (inactive) | 20.9 µM (inactive) | < 0.01 µM (active) | 19.3 µM (inactive) | 0.927 µM (active) | 21.9 µM (inactive) | 17.1 µM (inactive) | 29.2 µM (inactive) | 15.8 µM (inactive) | 7.46 µM (inactive) | 26.2 µM (inactive)
CCOS(=O)(=O)c1ccc(-c2c3nc(c(-c4ccc(S(=O)(=O)OCC)cc4)c4ccc([nH]4)c(-c4ccc(S(=O)(=O)OCC)cc4)c4nc(c(-c5ccc(S(=O)(=O)OCC)cc5)c5ccc2[nH]5)C=C4)C=C3)cc1 | > 31.6 µM (inactive) | > 31.6 µM (inactive) | > 31.6 µM (inactive) | > 31.6 µM (inactive) | > 31.6 µM (inactive) | > 31.6 µM (inactive) | 17.2 µM (inactive) | > 31.6 µM (inactive) | > 31.6 µM (inactive) | > 100 µM (inactive) | > 31.6 µM (inactive) | > 31.6 µM (inactive) | > 31.6 µM (inactive) | > 31.6 µM (inactive) | > 100 µM (inactive) | > 31.6 µM (inactive) | > 31.6 µM (inactive) | > 31.6 µM (inactive) | > 31.6 µM (inactive) | > 31.6 µM (inactive)
COc1ccc(Cc2nc3cc(C(F)(F)F)ccc3n2C[C@@H]2CCCN3CCCCC23)cc1 (stereo not given in full) | 11.1 µM (inactive) | 4.81 µM (inactive) | 13.6 µM (inactive) | 13.2 µM (inactive) | 14.2 µM (inactive) | 8.34 µM (inactive) | 5.4 µM (inactive) | 2.72 µM (inactive) | 13.7 µM (inactive) | 5.62 µM (inactive) | 19.9 µM (inactive) | 13.8 µM (inactive) |  | 11 µM (inactive) | 5.06 µM (inactive) | 6.04 µM (inactive) | 4.4 µM (inactive) | 7.31 µM (inactive) | 14.6 µM (inactive) | 5.58 µM (inactive)
CCOC(=O)/C1=C(\C)N(Cc2ccccc2)C(=O)c2ccccc2C(=O)c2c(O)ccc(O)c21 | > 100 µM (inactive) | > 100 µM (inactive) | > 100 µM (inactive) | > 100 µM (inactive) | > 100 µM (inactive) | < 0.01 µM (active) | 17.5 µM (inactive) | > 100 µM (inactive) | > 100 µM (inactive) | 48.4 µM (inactive) | > 100 µM (inactive) | < 0.01 µM (active) | > 100 µM (inactive) | > 100 µM (inactive) | > 100 µM (inactive) | > 100 µM (inactive) | > 100 µM (inactive) | > 100 µM (inactive) | > 100 µM (inactive) | > 100 µM (inactive)
Oc1c2c(c(O)c3ccccc13)C1(N=N2)c2ccccc2Oc2ccccc21 | 3.2 µM (inactive) | 7.03 µM (inactive) | 18.5 µM (inactive) | 3.9 µM (inactive) | 9.57 µM (inactive) | 3.09 µM (inactive) | 1.98 µM (inactive) | 8.38 µM (inactive) | 10.2 µM (inactive) | 15.8 µM (inactive) | 5.56 µM (inactive) | 10.7 µM (inactive) | 11.6 µM (inactive) | 8.73 µM (inactive) | 6.11 µM (inactive) | 7.55 µM (inactive) | 19 µM (inactive) | 6.46 µM (inactive) | 15.2 µM (inactive) | 3.17 µM (inactive)
CC(Nc1cc(=O)n(C)c(=O)[nH]1)c1ccccc1 (stereo not given) | > 100 µM (inactive) | > 100 µM (inactive) | > 100 µM (inactive) | > 100 µM (inactive) | > 100 µM (inactive) | > 100 µM (inactive) | > 100 µM (inactive) | > 100 µM (inactive) | > 100 µM (inactive) | 15.5 µM (inactive) | > 100 µM (inactive) | > 100 µM (inactive) | > 100 µM (inactive) | > 100 µM (inactive) | > 100 µM (inactive) | > 100 µM (inactive) | > 100 µM (inactive) | > 100 µM (inactive) | > 100 µM (inactive) | > 100 µM (inactive)
CCSc1nn(-c2c3ccccc3nc3ccccc23)c(=S)s1 | > 100 µM (inactive) | > 100 µM (inactive) | > 100 µM (inactive) | > 100 µM (inactive) | > 100 µM (inactive) | > 100 µM (inactive) | > 100 µM (inactive) | > 100 µM (inactive) | > 100 µM (inactive) | > 100 µM (inactive) | > 100 µM (inactive) | > 100 µM (inactive) | > 100 µM (inactive) | > 100 µM (inactive) | > 100 µM (inactive) | > 100 µM (inactive) | > 100 µM (inactive) | > 100 µM (inactive) | > 100 µM (inactive) | > 100 µM (inactive)
c1ccc(-c2cs[s+]c2)cc1 | 22.9 µM (inactive) | 41.9 µM (inactive) | 31.8 µM (inactive) | > 100 µM (inactive) | > 100 µM (inactive) | > 100 µM (inactive) | > 100 µM (inactive) | > 100 µM (inactive) | > 100 µM (inactive) | > 100 µM (inactive) | > 100 µM (inactive) | > 100 µM (inactive) | > 100 µM (inactive) | > 100 µM (inactive) | > 100 µM (inactive) | > 100 µM (inactive) | > 100 µM (inactive) | > 100 µM (inactive) | > 100 µM (inactive) | > 100 µM (inactive)
CCC(=O)Nc1ccc(NS(=O)(=O)c2ccc(Cl)cc2)cc1 | > 100 µM (inactive) | 28.2 µM (inactive) | > 100 µM (inactive) |  | > 100 µM (inactive) | > 100 µM (inactive) | > 100 µM (inactive) | > 100 µM (inactive) | > 100 µM (inactive) | > 100 µM (inactive) | > 100 µM (inactive) | > 100 µM (inactive) | > 100 µM (inactive) | > 100 µM (inactive) | > 100 µM (inactive) | > 100 µM (inactive) | > 100 µM (inactive) | > 100 µM (inactive) | > 100 µM (inactive) | > 100 µM (inactive)
O=c1[nH]c(=O)c2c([nH]1)[nH]c1ccccc12 | > 100 µM (inactive) | > 10 µM (inactive) |  |  | > 100 µM (inactive) | > 100 µM (inactive) | > 100 µM (inactive) | > 100 µM (inactive) | > 100 µM (inactive) | > 100 µM (inactive) | > 100 µM (inactive) | > 100 µM (inactive) | > 100 µM (inactive) | > 100 µM (inactive) | > 100 µM (inactive) | > 100 µM (inactive) | > 100 µM (inactive) | > 100 µM (inactive) | > 100 µM (inactive) | > 100 µM (inactive)
CC(C)CCNC(=O)c1ccc(CNC(=O)/C=C/c2ccc3c(c2)-c2ccccc2C3)cc1 | 38.8 µM (inactive) |  | 57.4 µM (inactive) | 24.7 µM (inactive) | 34.2 µM (inactive) | > 100 µM (inactive) | 39.1 µM (inactive) | 74.3 µM (inactive) | > 100 µM (inactive) | 41.2 µM (inactive) | 26.9 µM (inactive) | 87.3 µM (inactive) | 38.7 µM (inactive) | 44.6 µM (inactive) | 41.5 µM (inactive) | 39 µM (inactive) | > 100 µM (inactive) | > 100 µM (inactive) | 94 µM (inactive) | 59.8 µM (inactive)
